Assay results reported in paper PMC7140002, “Attenuation of Pseudomonas aeruginosa Quorum Sensing by Natural Products: Virtual Screening, Evaluation and Biomolecular Interactions” (International Journal of Molecular Sciences, 2020).

How the values were obtained:
LasR [1] = target: T1, LasR (Pseudomonas aeruginosa, UniProt P25084); test: microscale thermophoresis (no fluorescence signal in thermal shift assay); assay type: binding
T1 construct: LasR-LBD

LasR [2] = target: T1, LasR; test: microscale thermophoresis; assay type: binding

T1 sequence (P25084 1-173): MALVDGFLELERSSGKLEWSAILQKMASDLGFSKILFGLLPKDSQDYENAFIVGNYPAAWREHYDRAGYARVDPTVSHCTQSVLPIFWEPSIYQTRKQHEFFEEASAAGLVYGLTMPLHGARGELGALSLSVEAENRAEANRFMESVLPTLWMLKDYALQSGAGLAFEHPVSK

Compound	Kd (LasR [1]) [µM]	Kd (LasR [2]) [µM]
O=C(/C=C/c1ccc(O)c(O)c1)c1ccc(O)cc1O [B, Butein]	3.48 ± 1.63	–
O=C1C=C(Br)/C(=C/Br)O1 [C30, (Z-)-4-Bromo-5-(bromomethylene)-2(5H)-furanone]	–	20.4 ± 16
